What was measured:
[1] = Osmolarity of excipient-containing incubating solutions; format: physicochemical
Description: Osmolarity was measured using osmometer type 13/13DR from Roebling (Berlin, GR).
(§1) For each concentration of tested compound, pH and osmolarity parameters were measured.

in vitro = conditions: human, Cell viability
Source text: (§2) Cell viability and cell morphology were examined to evaluate the toxicity of excipients on retinal pigment epithelial cells. The human retina cell line used in these experiments is the ARPE-19 cell line (human adult-derived retinal pigmented epithelial cells). […] They form tight-junctions with transepithelial resistance of monolayers (Dunn K C et al., supra). From a molecular standpoint, it appears that ARPE-19 express a huge pattern of genes similar to those expressed by human RPE from fresh explant which could account for their physiological function (Klimanskaya I. et al., “Derivation and comparative assessment of retinal pigment epithelium from human embryonic stem cells using transcriptomics”, Cloning and Stem Cells, 2004, 6(3):217-45).
(§3) ARPE-19 cells are widely used as a retinal model that resemble physiological properties of RPE cells. Similar methods of culturing ARPE-19 cells and cytotoxicity assays can be found in Yeung et al., “Cytotoxicity of triamcinolone on cultured human retinal pigment epithelial cells: comparison with dexamethasone and hydrocortisone”, Jpn J. Ophthalmol, 2004; 48:236-242. Cell viability and cell morphology were examined using conventional colormetric and visual methods. Viability and morphology measurements were obtained at 24 hours, 48 hours, and 72 hours after exposure to an excipient composition.
(§4) To assess cell viability, mitochondrial metabolism was quantified through conventional colorometric assays (i.e., the MTT assay). This calorimetric assay utilizes 3-(4,5-dimethylthiazol-2-yl)-2,5-diphenyltetrazolium bromide (MTT) and correlates mitochondrial metabolism and cell viability through measurement of dehydrogenase activity which converts a substrate into crystal. More specifically, the assay measures the activity of living cells through mitochondrial dehydrogenases. When dissolved in culture cell medium, MTT solution appears dark orange. Mitochondrial dehydrogenases of viable cells degrade MTT by cleaving the tetrazolium ring yielding to formation of a purple formazan crystal, which is insoluble in water. Crystals are subsequently dissolved in isopropanol solution. A resulting purple solution is spectrophotometrically measured. Cell viability is relative to amount of formazan and calculated as a percentage of remaining treated compared to non-treated cells.
(§5) Results from the MTT assay were expressed as a percentage of cell viability calculated using the following equation: % cell viability=ODtest/ODcontrol×100.
(§6) For each experiment, one concentration was performed in triplicate. Each point was spectrophotometrically read twice. Average of readings was calculated, then average from these 3 values was determined.
(§7) After 3 experiments were independently completed under the same conditions, a graph was plotted with cell viability expressed as a function of concentration (dose response) and for various incubation period (time course). The IC50 was then estimated based on the graphed data.
(§8) More specifically, cell density in 24-multiwell plates was observed on the day of the experiment to check if confluence of the cells was reached. Aliquots of MTT concentrated solutions were removed from a freezer at −20° C. and thawed at room temperature. Cell medium was warmed at 37° C. before use. Appropriated tubes for diluting compounds were prepared. Higher concentrations of each excipient agent was prepared. Serial dilution was then performed in cell medium (DMEM:F12+10% FBS).
(§9) Cell culture medium in the 24-well plate was removed using vacuum-pump. Cells were then stimulated with 0.5 ml final volume for each concentration of one given excipient agent. Distribution of the excipient-containing solution was performed using automated pipet-aid in sterile environment (under PSM) or not depending on time of compounds and duration of incubation.
(§10) After stimulation, cells were replaced in a CO2 incubator for the required time of exposure.

ARPE-19 cells = experiment: MTT cell viability assay on ARPE-19 cells; conditions: for Reduction of cell survival: 24, 48 and 72 hour time points
Source text: as §2, §3, §4, §5, §6, §7, §8, §9, §10

[2] = pH of excipient-containing incubating solutions; format: physicochemical
Description: as §1

**Q.** For `CCCCCCCC/C=C\CCCCCCCC(=O)OCCOCC(OCCO)C1OCC(OCCO)C1OCCO` (stereo not drawn) [Polysorbate 80, polysorbate 80], which “Osmolarity of excipient dilution” value ([1]; 0.01% in culture medium) is on record?
**A.** 310 mOsm

**Q.** What about the “Osmolarity of excipient dilution” value ([1]; 0.02% in culture medium) of the same compound?
**A.** 307 mOsm

**Q.** And the “Osmolarity of excipient dilution” value ([1]; 0.04% in culture medium)?
**A.** 313 mOsm

**Q.** What about the “Osmolarity of excipient dilution” value ([1]; 0.06% in culture medium) of the same compound?
**A.** 346 mOsm

**Q.** And the “Osmolarity of excipient dilution” value ([1]; 0.08% in culture medium)?
**A.** 390 mOsm

**Q.** What about the “Osmolarity of excipient dilution” value ([1]; 0.1% in culture medium) of the same compound?
**A.** 523 mOsm

**Q.** What about the viability at 24 h, 0.01 % (in vitro; Mean (%)) of the same compound?
**A.** 93.5%

**Q.** And the viability at 24 h, 0.02 % (in vitro; Mean (%))?
**A.** 98.6%

**Q.** And the viability at 24 h, 0.04 % (in vitro; Mean (%))?
**A.** 104%

**Q.** And the viability at 24 h, 0.06 % (in vitro; Mean (%))?
**A.** 101%

**Q.** And the viability at 24 h, 0.08 % (in vitro; Mean (%))?
**A.** 82.3%

**Q.** What about the viability at 24 h, 0.1 % (in vitro; Mean (%)) of the same compound?
**A.** 3.9%

**Q.** And the viability at 48 h, 0.01 % (in vitro; Mean (%))?
**A.** 110%

**Q.** And the viability at 48 h, 0.02 % (in vitro; Mean (%))?
**A.** 118%

**Q.** What about the viability at 48 h, 0.04 % (in vitro; Mean (%)) of the same compound?
**A.** 125%

**Q.** And the viability at 48 h, 0.06 % (in vitro; Mean (%))?
**A.** 128%

**Q.** And the viability at 48 h, 0.08 % (in vitro; Mean (%))?
**A.** 72.9%

**Q.** What about the viability at 48 h, 0.1 % (in vitro; Mean (%)) of the same compound?
**A.** 0.5%

**Q.** What about the viability at 72 h, 0.01 % (in vitro; Mean (%)) of the same compound?
**A.** 120%

**Q.** What about the viability at 72 h, 0.02 % (in vitro; Mean (%)) of the same compound?
**A.** 126%

**Q.** And the viability at 72 h, 0.04 % (in vitro; Mean (%))?
**A.** 142%

**Q.** And the viability at 72 h, 0.06 % (in vitro; Mean (%))?
**A.** 157%

**Q.** What about the viability at 72 h, 0.08 % (in vitro; Mean (%)) of the same compound?
**A.** 74.8%

**Q.** And the viability at 72 h, 0.1 % (in vitro; Mean (%))?
**A.** 0.6%

**Q.** What about the viability at 24 h, 0.01 % (in vitro; experiments 1, 2, 3) of the same compound?
**A.** 90.3%

**Q.** What about the viability at 24 h, 0.02 % (in vitro; experiments 1, 2, 3) of the same compound?
**A.** 91.8%

**Q.** And the viability at 48 h, 0.01 % (in vitro; experiments 1, 2, 3)?
**A.** 109%

**Q.** And the viability at 48 h, 0.02 % (in vitro; experiments 1, 2, 3)?
**A.** 122%

**Q.** What about the viability at 48 h, 0.04 % (in vitro; experiments 1, 2, 3) of the same compound?
**A.** 126%

**Q.** And the viability at 72 h, 0.01 % (in vitro; experiments 1, 2, 3)?
**A.** 122%

**Q.** What about the viability at 72 h, 0.02 % (in vitro; experiments 1, 2, 3) of the same compound?
**A.** 129%

**Q.** What about the viability at 72 h, 0.04 % (in vitro; experiments 1, 2, 3) of the same compound?
**A.** 138%

**Q.** What about the viability at 72 h, 0.06 % (in vitro; experiments 1, 2, 3) of the same compound?
**A.** 148%

**Q.** And the Cell survival (ARPE-19 cells; 0.1% (w/v))?
**A.** substantially zero cell survival

**Q.** What about the Cell survival (ARPE-19 cells; 0.1% (w/v), listed as Tween80) of the same compound?
**A.** lethality

**Q.** And the “pH of excipient dilution” value ([2]; 0.01% in culture medium)?
**A.** 7.5

**Q.** What about the “pH of excipient dilution” value ([2]; 0.02% in culture medium) of the same compound?
**A.** 7.6

**Q.** And the “pH of excipient dilution” value ([2]; 0.04% in culture medium)?
**A.** 7.5

**Q.** And the “pH of excipient dilution” value ([2]; 0.06% in culture medium)?
**A.** 7.5

**Q.** And the “pH of excipient dilution” value ([2]; 0.08% in culture medium)?
**A.** 7.5

**Q.** What about the “pH of excipient dilution” value ([2]; 0.1% in culture medium) of the same compound?
**A.** 7.6

**Q.** For hyaluronic acid [HA], which Cell viability (ARPE-19 cells) is on record?
**A.** ~25%

**Q.** For “hydroxypropyl gamma-cyclodextrin [Cavasol]”, which “Effect on both cell parameters (viability, morphology)” value (ARPE-19 cells) is on record?
**A.** no measurable effect on both cell parameters

**Q.** And the Viable cells (ARPE-19 cells)?
**A.** approximately 80%

**Q.** What about the “Percentage of living cells” value (ARPE-19 cells; 0.05 to 10%, after recovery (later than 24 h)) of the same compound?
**A.** > 80%

**Q.** What about the “Reduction of cell survival” value (ARPE-19 cells; 0.1% (w/v)) of the same compound?
**A.** ≤ 10%

**Q.** And the “Cell survival (% of the initial value)” value (ARPE-19 cells; 10% (w/v))?
**A.** about 80%

**Q.** What about the “IC50 (cell viability), statement in words” value (ARPE-19 cells; at the tested concentrations and incubation times) of the same compound?
**A.** not possible to determine the IC50

**Q.** What about the “pH of excipient dilution” value ([2]; 0.1% in culture medium) of the same compound?
**A.** 7.6

**Q.** And the “pH of excipient dilution” value ([2]; 0.5% in culture medium)?
**A.** 7.6

**Q.** What about the “pH of excipient dilution” value ([2]; 1% in culture medium) of the same compound?
**A.** 7.6

**Q.** What about the “pH of excipient dilution” value ([2]; 5% in culture medium) of the same compound?
**A.** 7.6

**Q.** And the “pH of excipient dilution” value ([2]; 10% in culture medium)?
**A.** 7.6

**Q.** What about the “pH of excipient dilution” value ([2]; 20% in culture medium) of the same compound?
**A.** 7.6

**Q.** What does the source list for hydroxypropylmethyl cellulose [HPMC]?
**A.** Cell viability, experiment 3 (ARPE-19 cells): 77.4%; Decrease of cell viability (ARPE-19 cells): 20-40%

**Q.** With “sulfobutyl ether 4 beta-cyclodextrin [Captisol]” as the compound, how does the “Osmolarity of excipient dilution” value ([1]; 0.1% in culture medium) read?
**A.** 310 mOsm

**Q.** And the “Osmolarity of excipient dilution” value ([1]; 0.5% in culture medium)?
**A.** 318 mOsm

**Q.** And the “Osmolarity of excipient dilution” value ([1]; 1% in culture medium)?
**A.** 333 mOsm

**Q.** What about the “Osmolarity of excipient dilution” value ([1]; 5% in culture medium) of the same compound?
**A.** 408 mOsm

**Q.** And the “Osmolarity of excipient dilution” value ([1]; 10% in culture medium)?
**A.** 518 mOsm

**Q.** What about the “Osmolarity of excipient dilution” value ([1]; 20% in culture medium, listed as Sulfobutylether 4 beta-CD) of the same compound?
**A.** far exceeds physiological osmolarity range

**Q.** What about the “Osmolarity of excipient dilution” value ([1]; 20% in culture medium, listed as Sulfobutylether 4beta-CD) of the same compound?
**A.** 710 mOsm

**Q.** And the “Reduction of cell survival” value (ARPE-19 cells; 0.1% (w/v))?
**A.** 10-20%

**Q.** And the “Cell survival (% of the initial value)” value (ARPE-19 cells; 5% (w/v))?
**A.** 70-80%

**Q.** And the Cell survival (ARPE-19 cells; 10% (w/v), 24 hour time point)?
**A.** 50-60%

**Q.** What about the “pH of excipient dilution” value ([2]; 0.1% in culture medium) of the same compound?
**A.** 7.6

**Q.** What about the “pH of excipient dilution” value ([2]; 0.5% in culture medium) of the same compound?
**A.** 7.6

**Q.** And the “pH of excipient dilution” value ([2]; 1% in culture medium)?
**A.** 7.6

**Q.** What about the “pH of excipient dilution” value ([2]; 5% in culture medium) of the same compound?
**A.** 7.6

**Q.** And the “pH of excipient dilution” value ([2]; 10% in culture medium)?
**A.** 7.7

**Q.** What about the “pH of excipient dilution” value ([2]; 20% in culture medium) of the same compound?
**A.** 7.7
